Assay [1] addresses T1, Nocturnin (NOCT) (Homo sapiens, UniProt Q9UK39).
T1 sequence (Q9UK39 122-431): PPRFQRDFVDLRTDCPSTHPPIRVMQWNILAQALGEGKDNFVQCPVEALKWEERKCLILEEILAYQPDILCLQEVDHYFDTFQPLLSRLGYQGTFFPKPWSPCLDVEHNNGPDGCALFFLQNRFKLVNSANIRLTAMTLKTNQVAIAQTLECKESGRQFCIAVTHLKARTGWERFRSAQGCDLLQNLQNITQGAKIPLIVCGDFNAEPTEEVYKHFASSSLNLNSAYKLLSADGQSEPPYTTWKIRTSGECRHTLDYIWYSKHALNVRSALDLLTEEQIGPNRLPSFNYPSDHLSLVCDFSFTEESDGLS
Briefly: steady-state phosphatase kinetics of purified NOCT. The assay is classed as biochemical.

In assay [2] the target is T2, Nocturnin (NOCT) (Homo sapiens, UniProt Q9UK39, H414N).
T2 sequence (Q9UK39 122-431 H414N): T1 sequence (Q9UK39 122-431) with H293N
Briefly: NADPH intrinsic fluorescence titration. The assay is classed as binding.

Assay [3] addresses T1, Nocturnin (NOCT). The experiment in a line: NADPH intrinsic fluorescence titration. It is filed as binding.
The target of assay [4] is T3, Nocturnin (NOCT) (Homo sapiens, UniProt Q9UK39, N149A).
T3 sequence (Q9UK39 122-431 N149A): T1 sequence (Q9UK39 122-431) with N28A
The experiment in a line: NADPH intrinsic fluorescence titration. The assay is classed as binding.

Assay [5] has as its target T4, Nocturnin (NOCT) (Homo sapiens, UniProt Q9UK39, H286N).
T4 sequence (Q9UK39 122-431 H286N): T1 sequence (Q9UK39 122-431) with H165N
Briefly: NADPH intrinsic fluorescence titration. The assay is classed as binding.

Changes are numbered by the printed parent chain.

As for `NC(=O)c1ccc[n+]([C@@H]2O[C@H](COP(=O)(O)OP(=O)(O)OC[C@H]3O[C@@H](n4cnc5c(N)ncnc54)[C@H](OP(=O)(O)O)[C@@H]3O)[C@@H](O)[C@H]2O)c1` [NADP^+], at Nocturnin (NOCT) [1], the “steady-state phosphatase kinetics of purified NOCT (malachite green); value is k” value worked out at 78.

In general, Kd refers to the equilibrium constant for the complex coming apart. Lower therefore signals higher affinity. `NC(=O)C1=CN([C@@H]2O[C@H](COP(=O)(O)OP(=O)(O)OC[C@H]3O[C@@H](n4cnc5c(N)ncnc54)[C@H](OP(=O)(O)O)[C@@H]3O)[C@@H](O)[C@H]2O)C=CC1` [NADPH]: the Kd was 338 µM at Nocturnin (NOCT) [2], 308 µM at Nocturnin (NOCT) [3], 473 µM on Nocturnin (NOCT) [4] and 219 µM on Nocturnin (NOCT) [5].

These data come from article PMC13340911 (Archives of biochemistry and biophysics, 2025).
